Results taken from US20260375151A1, “KETOREDUCTASE MUTANT AND USE THEREOF” (SOUTH CHINA UNIVERSITY OF TECHNOLOGY, priority 2023, published 2026).

Molecular target: T1, Novosphingobium aromaticivorans ketoreductase (NaKRED) mutant Y199A/N149L (parent SEQ ID NO. 2) (Novosphingobium aromaticivorans, UniProt A4XEP2, E216K/G141A/I221V/N149L/Y199A)
T1 construct: substrate 1a with NADH
T1 sequence (A4XEP2 1-259 E216K/G141A/I221V/N149L/Y199A): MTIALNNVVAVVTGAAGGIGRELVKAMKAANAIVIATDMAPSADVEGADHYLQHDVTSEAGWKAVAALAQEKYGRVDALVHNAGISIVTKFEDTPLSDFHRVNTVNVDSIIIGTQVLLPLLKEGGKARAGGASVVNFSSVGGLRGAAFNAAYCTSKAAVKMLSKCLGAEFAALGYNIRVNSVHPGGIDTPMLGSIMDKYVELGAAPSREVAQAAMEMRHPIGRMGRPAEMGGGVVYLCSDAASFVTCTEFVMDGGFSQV
Test: Enzyme activity assay of purified Y199A/N149L mutant (change in absorbance at 340 nm, NADH)
Assay type: biochemical
Conditions: role: substrate; 0.5 mM substrate 1a; 1 mM NADH; 0.5 μM purified enzyme; 100 mM PBS pH 7.2
Description: The collected wet cells were resuspended in a reaction buffer in a ratio of 1 g wet cells to 15 mL of reaction buffer. The cells were lysed by ultrasonication in an ice bath using cycles of turn-on for 1 s and turn-off for 2 s for a total duration of 45 min. The lysate was centrifuged at 12,000 rpm and 4 °C for 15 min, and the supernatant was filtered through a 0.22 μm membrane for subsequent purification. The purification was performed by Ni-NTA affinity chromatography using a 5 mL of pre-packed column. The entire purification system was first equilibrated with an equilibration buffer, and the sample was loaded at a flow rate of 1 mL/min. Unbound impurity proteins were further removed with the equilibration buffer, and gradient elution was performed by using an elution buffer (500 mM NaCl, and 500 mM imidazole). A target protein was eluted at approximately 150 mM imidazole. The target protein was collected, and concentrated and desalted by using an ultrafiltration tube (50 kDa cutoff) to a final volume of 1 mL. A protein solution was aliquoted and stored at −80 °C for further use.
Therefore, the activity of the mutant was evaluated by monitoring the change in absorbance at 340 nm during the reaction. […] The change in absorbance was monitored over 5 min. […] A sample was prepared by filtration through a 0.22 μm membrane, and the formation of product was detected by HPLC.

## CC(C)C(=O)CC[C@@H](C)[C@H]1CCC2C3C(CC[C@@]21C)[C@@]1(C)CC[C@@H](O)C[C@@H]1C[C@H]3O (stereo partly shown) [1a]
  TON: 438 ± 2.9
